Results taken from US20160137639A1, “TRIAZOLE-ISOXAZOLE COMPOUND AND MEDICAL USE THEREOF” (JAPAN TOBACCO INC., priority 2012, published 2016).
pEC50: −log10 of the molar value. Like-named read-outs stand apart in the source and are kept apart here.

How the values were obtained:
human RORγ = biological target: T1, human RORγ (Homo sapiens, UniProt P51449); experiment: Luciferase reporter gene assay of inhibitory effect against RORγ transcriptional activity (GAL4-hRORγ plasmid in CHO cells); type: cell-based; conditions: for EC50: read-out: LUC EC50 (μM) hRORg; for pEC50: read-out: LUC EC50 hRORg
T1 construct: human, NM_005060.3 and from Ser253 to Lys518; expressed in transfected cells; host or cells: CHO cells (transient co-transfection with pG5-Luc reporter)
T1 sequence (P51449 253-518): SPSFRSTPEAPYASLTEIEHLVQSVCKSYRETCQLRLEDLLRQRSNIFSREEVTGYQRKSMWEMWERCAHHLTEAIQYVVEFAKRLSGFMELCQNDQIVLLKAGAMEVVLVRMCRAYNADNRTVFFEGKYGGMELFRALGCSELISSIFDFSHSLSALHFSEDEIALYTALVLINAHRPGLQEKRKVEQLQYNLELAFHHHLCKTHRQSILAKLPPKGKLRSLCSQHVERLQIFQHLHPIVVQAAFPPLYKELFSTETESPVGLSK
Protocol: (§1) In vitro assay of inhibitory effect against RORγ transcriptional activity
(§2) Inhibitory effect of test article on transcriptional activity of RORγ was measured by means of the following luciferase reporter gene assay.
(§3) A cDNA encoding human and mouse RORγ ligand binding domain (LBD) were obtained based on the reported sequences (Genebank accession number and sequence: human, NM_005060.3 and from Ser253 to Lys518; mouse, NM_011281.2 and from Ile251 to Lys516).
(§4) The cDNA of human RORγ or mouse RORγ was inserted into pFA-CMV vector (Strategene), which expresses GAL4-DNA binding domain fusion protein.
(§5) The resulting plasmids are hereinafter referred to as GAL4-hRORγ plasmid and GAL4-mRORγ plasmid, respectively.
(§6) Human or mouse GAL4-RORγ plasmid was transiently co-transfected into Chinese hamster ovary cells (CHO cells) with […] plasmid, a reporter plasmid expressing firefly luciferase depending on GAL4.
(§7) TransIT CHO transfection reagent (Mirus) was used to co-transfect human or mouse GAL4-RORγ plasmid into CHO cells with pG5-Luc plasmid.
(§8) One day before the assay, CHO cells were suspended in HAM F-12 Nutrient medium containing 10 v/v % fetal bovine serum and seeded at 6×10^6 cells per 175 cm^2 cell culture flask.
(§9) Fifty four micro litters of Transit-CHO reagent was added into a 15 ml tube containing 1.16 ml of HAM F-12 Nutrient medium without fetal bovine serum and incubated at room temperature for 10 min.
A total 36 uL plasmid solution containing the GAL4-hRORγ plasmid (400 ng), pG5-Luc plasmid (9000 ng) and pcDNA3 plasmid (8600 ng) were added into the tube and mixed gently.
(§10) The mixture was incubated at room temperature for 10 min.
(§11) Nine micro litters of CHO Mojo Reagent was then added into each tube and mixed gently. The mixture was incubated at room temperature for 10 min.
(§12) The resultant transfection reagent was applied to the cell culture.
(§13) After incubation at 37° C., 5% CO2 for 4 hr, the transfected CHO cells were harvested by a trypsin treatment.
(§14) The collected cells were resuspended in HAM F-12 Nutrient medium supplemented with 10 v/v % fetal bovine serum and plated into a 384-well-white plate at 8,000 cells/50 uL/well.
(§15) The plate was incubated at room temperature for 1 hour and then further incubated at 37° C., 5% CO2 for 3 hours.
(§16) The test articles were dissolved in dimethylsulfoxide (DMSO) to obtain a concentration of 10 mmol/L. The resulting solution was diluted with the medium just before use and added to the cells in the plate to prepare 8 different concentrations of the test article.
(§17) The final concentration of DMSO was 0.1 v/v % After the addition of the test articles, the cells were incubated at 37° C., 5% CO2 for 2 days.
(§18) RORγ transcriptional activity was detected as the intracellular luciferase activity using SteadyLite HTS Reporter Gene Assay System (Perkin Elmer).
(§19) StedyLite Reagent was diluted five-fold into a solution containing 10 mM Tricine, 0.2% w/v BSA, 0.02% v/v Tween-20 to obtain the luciferase substrate solution.
(§20) After the measurement of the cell viability using Resazurin, the culture media in the 384 well-plate were removed. Then the Luc substrate solution was added into each well.
(§21) After the incubation at room temperature for 10 minutes, luminescence of each well was measured by a microplate reader.
(§22) The luciferase activity derived from the luminescence count in the vehicle-control well treated with 0.1% DMSO alone was defined as 100%, and the luciferase activity in the test article was calculated as a percentage (%-of-control) based on the value of the vehicle-control.
(§23) EC50 value of test article was calculated by curve fitting with GraphPad Prism.
(§24) The luminescence counts at the concentration of the test article where the cytotoxicity was observed were excluded from the data analysis.

mouse RORγ = biological target: T2, mouse RORγ (Mus musculus, UniProt P51450); experiment: Luciferase reporter gene assay of inhibitory effect against RORγ transcriptional activity (GAL4-mRORγ plasmid in CHO cells); type: cell-based; conditions: for EC50: read-out: LUC EC50 (μM) mRORg; for pEC50: read-out: LUC EC50 mRORg
T2 construct: mouse, NM_011281.2 and from Ile251 to Lys516; expressed in transfected cells; host or cells: CHO cells (transient co-transfection with pG5-Luc reporter)
T2 sequence (P51450 251-516): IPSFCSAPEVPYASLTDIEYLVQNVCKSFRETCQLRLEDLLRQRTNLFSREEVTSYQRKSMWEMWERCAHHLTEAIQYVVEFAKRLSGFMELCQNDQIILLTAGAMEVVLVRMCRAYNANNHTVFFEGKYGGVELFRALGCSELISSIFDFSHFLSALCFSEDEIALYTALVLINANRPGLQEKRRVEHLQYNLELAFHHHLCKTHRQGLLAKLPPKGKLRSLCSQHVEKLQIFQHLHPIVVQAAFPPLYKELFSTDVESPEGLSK
Protocol: as §1, §2, §3, §4, §5, §6, §7, §8, §9, §10, §11, §12, §13, §14, §15, §16, §17, §18, §19, §20, §21, §22, §23, §24

SMILES	EC50 (human RORγ)	EC50 (mouse RORγ)	pEC50 (human RORγ)	pEC50 (mouse RORγ)
Cc1ccc(NC(=O)C[C@H](CCC(=O)O)c2noc(-c3cc(CCC(F)(F)F)on3)c2C2CC2)c(Cl)c1 [Example E-50]	< 3 µM	< 3 µM	–	–
CC(C)C[C@H]1C[C@@H](c2nnc([C@@H](CCO)CC(=O)Nc3ccc(F)cc3Cl)n2C2CC2)C1 [Example F-513]	–	–	> 5.52	> 5.52
Cc1c(Cl)cccc1NC(=O)CCc1nnc(CC[C@H]2CC[C@H](C(=O)N(C)C)CC2)n1C1CC1 [Example F-258]	> 3 µM	> 3 µM	–	–
Cc1ccc(NC(=O)C(C)C(CCO)c2nnc([C@H]3C[C@@H](CC(C)C)C3)n2C2CC2)c(C)c1 (single isomer, unassigned) [Example F-492]	> 3 µM	> 3 µM	–	–
CCn1c(CCC(=O)Nc2cc(C)cc(C)c2)nnc1CCC1CCCCC1 [Example F-38]	< 3 µM	> 3 µM	–	–
Cc1ccc(NC(=O)C[C@H](CCC(=O)O)c2noc(-c3ccc(CC(C)C)o3)c2C2CC2)c(Cl)c1 [Example E-28]	< 3 µM	< 3 µM	–	–
Cc1ccc(NC(=O)[C@H]2C[C@@H](O)C[C@@H]2c2nnc([C@H]3C[C@@H](CC(C)C)C3)n2C2CC2)c(C)c1 [Example F-470]	< 3 µM	< 3 µM	–	–
Cc1ccc(NC(=O)CCc2nnc([C@H]3C[C@H](CC4CCCC4)C3)n2C2CC2)c(C)c1 [Example F-423]	< 3 µM	< 3 µM	–	–
CC(C)(C)C(F)(F)c1cc(-c2onc([C@@H](CCC(=O)O)CC(=O)Nc3ccc(Cl)cc3F)c2C(F)F)no1 [Example E-62, Sodium (S)-5-(4-chloro-2-fluoro-phenylcarbamoyl)-4-[5-(1,1-difluoro-2,2-dimethylpropyl)-4′-difluoromethyl-[3,5′]biisoxazolyl-3′-yl]-pentanoate]	< 3 µM	< 3 µM	–	–
CC(=O)N1C[C@H](C(=O)Nc2ccc(C)cc2C)[C@@H](c2nnc(-c3cc(CC(C)(C)C)on3)n2C2CC2)C1 [Example F-631]	–	–	> 5.52	> 5.52
Cc1ccc(NC(=O)[C@H]2CN(CC(=O)N(C)C)C[C@@H]2c2nnc([C@H]3C[C@@H](CC(C)C)C3)n2C2CC2)c(C)c1 [Example F-656]	–	–	> 5.52	> 5.52
CC(=O)NCC(CC(=O)Nc1ccc(C)cc1C)c1nnc(CCCC(C)C)n1C1CC1 (racemic) [Example F-277]	> 3 µM	< 3 µM	–	–
Cc1cccc(CCNC(=O)CCc2nnc(CCC(C)C)n2C2CC2)c1 [Example F-68]	> 3 µM	> 3 µM	–	–
Cc1c(Cl)cccc1NC(=O)CCc1nnc(CCCC(C)(C)C(=O)N(C)C)n1C1CC1 [Example F-238]	> 3 µM	> 3 µM	–	–
Cc1ccc(CNC(=O)CCc2nnc(CCC(C)C)n2C2CC2)c(O)c1 [Example F-149]	> 3 µM	> 3 µM	–	–
Cc1ccc(NC(=O)C[C@H](CCC(=O)O)c2noc(-c3cc(C4CC(C)(C)C4)on3)c2C2CC2)c(Cl)c1 [Example E-30]	< 3 µM	< 3 µM	–	–
CCn1c(CCC(=O)NC2CCCCC2)nnc1C1Cc2ccccc2C1 [Example F-21]	> 3 µM	> 3 µM	–	–
Cc1ccccc1CNC(=O)CCc1nnc(CCC(C)C)n1C1CC1 [Example F-59]	> 3 µM	> 3 µM	–	–

SMILES	EC50 (human RORγ)	EC50 (mouse RORγ)	pEC50 (human RORγ)	pEC50 (mouse RORγ)
CC(=O)N1C[C@H](C(=O)Nc2ccc(C)cc2C)[C@@H](c2nnc(-c3ccc(C(C)C)cc3)n2C2CC2)C1 (racemic) [Example F-319]	< 3 µM	< 3 µM	–	–
COCC(C)(C)C[C@H]1C[C@@H](c2onc([C@@H](CCC(=O)O)CC(=O)Nc3ccc(CO)cc3Cl)c2C2CC2)C1 [Example F-724]	–	–	> 5.52	> 5.52
CC(=O)N1CC[C@H](C(=O)Nc2ccc(C)cc2C)[C@H]1c1nnc(CCCC(C)(C)C)n1C1CC1 [Example F-296]	< 3 µM	< 3 µM	–	–
Cc1ccc(NC(=O)C[C@H](CCC(=O)O)c2noc(-c3cc(C4CCCC4)on3)c2C2CC2)c(Cl)c1 [Example E-24]	< 3 µM	< 3 µM	–	–
COc1cc(C)ccc1CNC(=O)[C@H]1CCN(C(C)=O)[C@@H]1c1nnc(CCCC(C)(C)C)n1C1CC1 [Example F-297]	< 3 µM	< 3 µM	–	–
CCn1c(CCCC(C)(C)C)nnc1[C@@H]1[C@@H](C(=O)NCc2ccc(C)cc2OC)CCN1C(C)=O [Example F-370]	< 3 µM	< 3 µM	–	–
Cc1cccc(NC(=O)CCc2nnc(CCC(C)C)n2C2CC2)c1C [Example F-78]	> 3 µM	< 3 µM	–	–
COc1cc(C)ccc1CNC(=O)C[C@H](CCO)c1nnc([C@H]2C[C@@H](CC(C)C)C2)n1C1CC1 [Example F-535]	–	–	> 5.52	> 5.52
CC(=O)N1C[C@H](C(=O)Nc2ccc(C)cc2C)[C@@H](c2nnc(-c3cc(CC(C)C)no3)n2C2CC2)C1 [Example F-506]	–	–	> 5.52	> 5.52
CC(C)(C)C[C@H]1C[C@@H](c2noc([C@@H](CCC(=O)O)CC(=O)Nc3ccc(Cl)cc3F)c2C2CC2)C1 [Example F-717]	–	–	> 5.52	> 5.52
Cc1ccc(NC(=O)C[C@H](CCC(=O)O)c2noc(-c3cc(C4(C)CCCC4)on3)c2C2CC2)c(Cl)c1 [Example E-42]	< 3 µM	< 3 µM	–	–
Cc1cc(F)ccc1NC(=O)C[C@H](CCO)c1nnc([C@H]2C[C@@H](CC(F)(F)F)C2)n1C1CC1 [Example F-588]	–	–	< 5.52	> 5.52
Cc1ccc(NC(=O)C[C@H](CC(C)C)c2nnc(-c3cc(CCC(C)C)on3)n2C2CC2)c(C)c1 [Example F-627]	–	–	> 5.52	> 5.52
CCn1c(CCC(=O)Nc2cccc3ccccc23)nnc1CCC1CCCCC1 [Example F-13]	< 3 µM	< 3 µM	–	–
Cc1cc(F)ccc1NC(=O)[C@H]1CC(F)(F)C[C@@H]1c1nnc(-c2cc(CC(C)C)on2)n1C1CC1 [Example F-592]	–	–	> 5.52	> 5.52
Cc1ccc(NC(=O)C[C@H](CC(=O)O)c2noc(-c3cc(C(F)(F)C(C)(C)C)on3)c2C2CC2)c(Cl)c1 [Example E-53, Sodium (R)-4-(2-chloro-4-methyl-phenylcarbamoyl)-3-[4′-cyclopropyl-5-(1,1-difluoro-2,2-dimethylpropyl)-[3,5′]biisoxazolyl-3′-yl]-butyrate]	< 3 µM	< 3 µM	–	–
CC(C)CCc1nnc(CCC(=O)Nc2ccccc2)n1C1CC1 [Example F-56]	> 3 µM	> 3 µM	–	–
Cc1c(Cl)cccc1NC(=O)CCc1nnc(C2CCCC(C)C2)n1C1CC1 (stereo not drawn) [Example F-135]	> 3 µM	< 3 µM	–	–
